Series [1] deals with HT-29 colon adenocarcinoma cells. The series is described as follows: Antiproliferative activity (NCI procedure, sulforhodamine B), HT-29. Type of series: cell-based, human. The following applies: Homo sapiens, HT-29, 48 h. In short, it runs like this: (§1)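 Cells seeded in DMEM, grown 24 h at 37 °C, then exposed 48 h to serial dilutions from 100 μM to 781 nM (DMSO <0.5%). TCA fixation, sulforhodamine B staining, absorbance at 530-568 nm; growth inhibition relative to plates fixed on treatment day. At least two experiments in triplicate.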

Series [2] has as its system HaCaT cells. Description: Cell cycle analysis by flow cytometry. It counts as cell-based, human.
In series [3] the test system is A549 adenocarcinoma alveolar epithelial cancer cells. Description: Antiproliferative activity (NCI procedure, sulforhodamine B), A549. Type of series: cell-based, human. The following applies: Homo sapiens, A549, 48 h. The method in brief:
as §1

The test system of series [4] is mRNAs of IL-1B, IL-6, TNF-α and IL-8. Description: mRNA levels of cytokines in THP-1 cells stimulated with LPS. Type of series: cell-based. The following applies: in words. The source says:
The effect of compounds 3a-b, 4a-e, 5a-e and 6a-e on the expression of IL-6 was subsequently assessed using the HaCaT spontaneously transformed aneuploid immortal keratinocyte cell line, stimulated by the addition of IL-17A and TNFα in the culture medium (Table 1). Curcumin and ibuprofen were used as known IL-6 expression inhibitors. DMSO was used for solubilizing the drugs. […] Indeed, the inhibitory effect of these molecules was at least equivalent to that of curcumin [27] and ibuprofen, both recognized as anti-inflammatory drugs. The inhibitory effect of the substituted phenyl cycloalkylureas in accordance with an embodiment of the present disclosure on proinflammatory cytokines was also found at the mRNA level. Indeed, the mRNAs of the cytokines IL-6 and TNF-α as well as the mRNA of the chemokine IL-8 were lowered in TNF-α/IL-17A-stimulated HaCaT cells. Similar results were obtained in THP-1 cells stimulated with LPS where treatments with CHEU and 4e diminished the mRNA levels of the cytokines IL-1B, IL-6 and TNF-α in addition to the mRNA levels of the chemokine IL-8. It is surmised that the anti-inflammatory mechanism of action of the compounds of the present disclosure is likely mediated, at least in part, by modulating the phosphorylation state of the MAP kinase p38. […]

The subject of series [5] is IL-6. The series is described as follows: IL-6 expression in HaCaT cells stimulated with IL-17A and TNFα (ELISA). It counts as cell-based, human. Conditions: 10 μM solutions; HaCaT stimulated with IL-17A and TNFα; mean of five experiments in duplicate. From the text:
The effect of compounds 3a-b, 4a-e, 5a-e and 6a-e on the expression of IL-6 was subsequently assessed using the HaCaT spontaneously transformed aneuploid immortal keratinocyte cell line, stimulated by the addition of IL-17A and TNFα in the culture medium (Table 1). Curcumin and ibuprofen were used as known IL-6 expression inhibitors. DMSO was used for solubilizing the drugs. […] Indeed, the inhibitory effect of these molecules was at least equivalent to that of curcumin [27] and ibuprofen, both recognized as anti-inflammatory drugs. The inhibitory effect of the substituted phenyl cycloalkylureas in accordance with an embodiment of the present disclosure on proinflammatory cytokines was also found at the mRNA level. Indeed, the mRNAs of the cytokines IL-6 and TNF-α as well as the mRNA of the chemokine IL-8 were lowered in TNF-α/IL-17A-stimulated HaCaT cells. Similar results were obtained in THP-1 cells stimulated with LPS where treatments with CHEU and 4e diminished the mRNA levels of the cytokines IL-1B, IL-6 and TNF-α in addition to the mRNA levels of the chemokine IL-8. It is surmised that the anti-inflammatory mechanism of action of the compounds of the present disclosure is likely mediated, at least in part, by modulating the phosphorylation state of the MAP kinase p38. […] Addition of a compound in accordance with an embodiment of the present disclosure, prior to stimulation with the aforementioned cytokines, decreases the level of p-p38 at 30-60 minutes post-stimulation. This diminution in p-p38 levels destabilizes the mRNAs of pro-inflammatory cytokines, non-limiting examples of which include TNF-α and IL-6. Moreover, it is surmised that the effect of the compounds of the present disclosure on p-p38 is potentially mediated by the activation of the phosphatase named DUSP1.
HaCaT cells (1×10^5) were suspended in DMEM culture media (500 μL) and incubated for 24 h in 24-well microtiter plates at 37° C. in a moisture-saturated atmosphere containing 5% CO2. Compounds were solubilized in DMSO and diluted in fresh DMEM. The compound (500 μL) was then added to the cell medium to obtain a final concentration of […] and the cells incubated over a period of 1 hour. In the meantime, IL-17α (200 ng/mL) and TNFα (20 ng/mL) (PeproTech, Rocky Hill, N.J.) were added to the drug solution in DMEM. Following the initial incubation of the cells, the culture medium was aspirated from each well and the IL-17α+ TNFα+ compound solution was added to each well for incubation (6 hours). The culture media was then removed and transferred to a clean tube (1.5 mL) at −80° C. until the ELISA test was performed. The presence of IL-6 in the cell media was determined using an IL-6 human Duoset ELISA kit (Fisher Scientific, Ottawa, On.) according to the manufacturer's instructions. Standards and samples were prepared and assessed in duplicate. Two separate replicates were performed for each sample. The absorbance was measured at 450 nm and 540 nm using a TECAN infinite M1000 plate reader.

Series [6] relates to HDFn neonatal dermal fibroblast cell line. Description: Antiproliferative activity (NCI procedure, sulforhodamine B), HDFn. It counts as cell-based, human. Conditions: Homo sapiens, Fibroblast, 48 h. In short, it runs like this:
as §1

Series [7] has as its system HaCaT keratinocyte cell line. The series is described as follows: Antiproliferative activity (NCI procedure, sulforhodamine B), HaCaT. Type of series: cell-based, human. Conditions: Homo sapiens, HaCaT, 48 h. In short, it runs like this: as §1
The mark [8] stands for this setting: Table 6, unit inferred, tested 781 nM to 100 μM.

As usually defined, the GI50 is the concentration giving 50% growth inhibition. Lower therefore signals more potent growth inhibition. The IC50 is the concentration that gives 50% inhibition. Read a high IC50 as weaker potency in that assay. In general, melting point refers to the temperature of the solid-liquid transition. As for `O=C(Nc1ccc(C2CCCCC2)cc1)NC1CC1` [Compound 54, 1-(4-Cyclohexylphenyl)-3-cyclopropylurea], the melting point fell in the range of 173 to 176 °C. Growth in series [1] (Table 2) was halved (GI50) at 54 µM. The midpoint of inhibition in series [1] (setting [8]), the IC50, lay at 54 µM. For the same molecule, in series [2] (10 μM, 24 h), the “Cell cycle progression G0-G1” value came out at 47.7, the “Cell cycle progression G2-M” value is 28.1 and the “Cell cycle progression S” value amounted to 24.2. Also, the “effect on cell cycle progression” value in series [2] (in words) is listed as “did not affect the cell cycle progression”. This molecule also showed a GI50 in series [3] (Table 2) of 48 µM. Moreover, the half-maximal inhibitory concentration (IC50) in series [3] (setting [8]) was found to be 48 µM. In series [4], the “mRNA levels of the cytokines IL-1B, IL-6 and TNF-α and of the chemokine IL-8” value is “diminished”. Besides, the “Expression of IL-6, HaCaT” value in series [5] is reported as 29.2 ± 3.5 pg/mL. In series [6] (Table 2), this molecule came in with a concentration for 50% growth inhibition (GI50) of 40 µM. Further, the concentration for half-maximal inhibition (IC50) in series [6] (setting [8]) came out at 40 µM. This molecule also displayed a concentration for 50% growth inhibition (GI50) in series [7] (Table 2) of 74 µM. Also, the IC50 in series [7] (setting [8]) stood at 74 µM.

The record behind these values is patent US20210163404A1, “NOVEL UREA COMPOUNDS AND BIOISOSTERES THEREOF AND THEIR USE FOR TREATING INFLAMMATION AND INFLAMMATION-RELATED PATHOLOGIES” (UNIVERSITÉ LAVAL, priority 2017, published 2021).
